We go through three compounds from publication PMC6437697 (Journal of Medicinal Chemistry, 2019).

What all share (assay): KINOMEscan
Holding throughout (type): binding
Holding throughout (conditions): read-out: % control activity remaining

One assay has as its target T1, EPHA1 (Homo sapiens, UniProt P21709).
T1 construct: purchased Eurofins DiscoverX KINOMEscan
T1 sequence (P21709 26-976): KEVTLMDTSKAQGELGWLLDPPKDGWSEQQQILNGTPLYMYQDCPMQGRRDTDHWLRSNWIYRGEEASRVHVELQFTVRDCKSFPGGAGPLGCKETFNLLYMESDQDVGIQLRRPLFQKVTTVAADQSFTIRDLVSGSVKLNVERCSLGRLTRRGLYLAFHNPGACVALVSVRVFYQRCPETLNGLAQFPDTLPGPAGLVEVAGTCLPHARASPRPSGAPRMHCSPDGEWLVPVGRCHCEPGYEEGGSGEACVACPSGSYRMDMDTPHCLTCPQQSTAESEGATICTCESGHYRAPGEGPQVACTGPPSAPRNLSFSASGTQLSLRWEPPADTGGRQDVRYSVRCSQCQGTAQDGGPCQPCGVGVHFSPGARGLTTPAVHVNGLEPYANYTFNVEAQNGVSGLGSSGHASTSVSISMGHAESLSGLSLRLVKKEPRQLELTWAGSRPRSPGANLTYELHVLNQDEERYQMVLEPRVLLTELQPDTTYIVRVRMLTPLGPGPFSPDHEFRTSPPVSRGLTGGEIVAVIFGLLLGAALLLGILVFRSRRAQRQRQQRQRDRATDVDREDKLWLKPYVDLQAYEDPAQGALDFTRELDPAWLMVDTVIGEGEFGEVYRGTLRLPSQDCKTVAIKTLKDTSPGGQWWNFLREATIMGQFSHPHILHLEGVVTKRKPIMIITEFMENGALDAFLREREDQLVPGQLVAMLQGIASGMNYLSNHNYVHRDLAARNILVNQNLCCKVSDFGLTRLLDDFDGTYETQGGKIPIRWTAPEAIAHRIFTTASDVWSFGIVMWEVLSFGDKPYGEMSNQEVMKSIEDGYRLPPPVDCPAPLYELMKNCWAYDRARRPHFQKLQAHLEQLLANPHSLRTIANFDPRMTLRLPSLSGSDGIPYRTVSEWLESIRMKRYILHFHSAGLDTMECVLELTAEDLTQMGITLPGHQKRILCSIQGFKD

Another assay concerns the target T2, CTK (Homo sapiens, UniProt P42679).
T2 construct: purchased Eurofins DiscoverX KINOMEscan
T2 sequence (P42679 1-507): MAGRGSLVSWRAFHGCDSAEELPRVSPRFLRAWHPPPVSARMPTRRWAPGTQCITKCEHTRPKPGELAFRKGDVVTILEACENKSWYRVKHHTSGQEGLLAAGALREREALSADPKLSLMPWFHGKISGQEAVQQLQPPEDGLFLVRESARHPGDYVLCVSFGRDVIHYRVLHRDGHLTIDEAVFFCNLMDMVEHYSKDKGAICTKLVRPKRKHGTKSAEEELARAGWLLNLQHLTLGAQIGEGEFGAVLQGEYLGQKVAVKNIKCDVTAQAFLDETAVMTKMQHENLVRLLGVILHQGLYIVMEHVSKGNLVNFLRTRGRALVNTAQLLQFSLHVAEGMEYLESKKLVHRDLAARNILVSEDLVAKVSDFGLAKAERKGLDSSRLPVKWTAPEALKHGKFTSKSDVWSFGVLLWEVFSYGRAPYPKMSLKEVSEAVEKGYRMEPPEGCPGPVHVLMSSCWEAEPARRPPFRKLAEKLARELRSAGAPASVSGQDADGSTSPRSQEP

Another assay deals with T3, CSNK1D (Homo sapiens, UniProt P48730).
T3 construct: purchased Eurofins DiscoverX KINOMEscan

The next assay has as its target T4, MARK4 (Homo sapiens, UniProt Q96L34).
T4 construct: purchased Eurofins DiscoverX KINOMEscan
T4 sequence (Q96L34 1-752): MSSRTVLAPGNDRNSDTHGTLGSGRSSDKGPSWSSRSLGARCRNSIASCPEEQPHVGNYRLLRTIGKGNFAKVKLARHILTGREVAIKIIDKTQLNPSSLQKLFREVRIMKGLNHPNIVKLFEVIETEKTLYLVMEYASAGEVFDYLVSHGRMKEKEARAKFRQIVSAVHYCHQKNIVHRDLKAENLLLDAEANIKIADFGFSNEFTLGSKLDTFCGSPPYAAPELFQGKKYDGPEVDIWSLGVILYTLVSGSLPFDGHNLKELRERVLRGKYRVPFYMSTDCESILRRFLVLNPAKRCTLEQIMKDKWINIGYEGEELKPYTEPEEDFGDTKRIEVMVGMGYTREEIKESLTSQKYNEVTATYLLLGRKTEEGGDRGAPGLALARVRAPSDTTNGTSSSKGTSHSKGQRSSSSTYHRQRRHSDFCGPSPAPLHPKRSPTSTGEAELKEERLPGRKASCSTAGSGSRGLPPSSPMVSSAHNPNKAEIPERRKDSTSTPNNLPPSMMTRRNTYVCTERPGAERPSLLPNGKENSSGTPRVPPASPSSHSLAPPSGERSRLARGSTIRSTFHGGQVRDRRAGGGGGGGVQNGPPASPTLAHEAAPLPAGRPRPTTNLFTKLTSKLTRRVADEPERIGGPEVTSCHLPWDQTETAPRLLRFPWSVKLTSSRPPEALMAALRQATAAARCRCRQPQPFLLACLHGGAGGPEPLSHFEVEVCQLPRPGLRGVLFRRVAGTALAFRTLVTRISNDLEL

The target of another assay is T5, BRSK2 (Homo sapiens, UniProt Q8IWQ3).
T5 construct: purchased Eurofins DiscoverX KINOMEscan
T5 sequence (Q8IWQ3 1-736): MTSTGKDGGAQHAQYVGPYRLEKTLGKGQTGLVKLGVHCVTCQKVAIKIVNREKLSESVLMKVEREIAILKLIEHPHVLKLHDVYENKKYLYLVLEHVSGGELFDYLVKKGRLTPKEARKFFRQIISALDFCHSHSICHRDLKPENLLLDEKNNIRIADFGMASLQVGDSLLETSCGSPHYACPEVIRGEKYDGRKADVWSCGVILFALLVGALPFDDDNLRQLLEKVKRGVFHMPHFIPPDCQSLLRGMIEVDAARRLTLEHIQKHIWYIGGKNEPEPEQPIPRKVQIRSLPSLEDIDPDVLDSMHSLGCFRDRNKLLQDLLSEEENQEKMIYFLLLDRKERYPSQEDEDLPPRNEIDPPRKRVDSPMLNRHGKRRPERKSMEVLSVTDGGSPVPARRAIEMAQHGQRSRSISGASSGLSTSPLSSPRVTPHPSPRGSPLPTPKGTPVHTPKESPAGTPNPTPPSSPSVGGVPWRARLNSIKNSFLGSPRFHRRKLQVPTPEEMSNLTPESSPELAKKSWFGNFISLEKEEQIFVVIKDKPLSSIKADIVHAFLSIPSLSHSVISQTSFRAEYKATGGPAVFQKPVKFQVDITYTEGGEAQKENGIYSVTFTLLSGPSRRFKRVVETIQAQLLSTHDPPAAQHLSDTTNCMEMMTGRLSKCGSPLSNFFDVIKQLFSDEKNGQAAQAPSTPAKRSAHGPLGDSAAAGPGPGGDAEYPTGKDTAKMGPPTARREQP

T3 sequence (P48730 whole entry): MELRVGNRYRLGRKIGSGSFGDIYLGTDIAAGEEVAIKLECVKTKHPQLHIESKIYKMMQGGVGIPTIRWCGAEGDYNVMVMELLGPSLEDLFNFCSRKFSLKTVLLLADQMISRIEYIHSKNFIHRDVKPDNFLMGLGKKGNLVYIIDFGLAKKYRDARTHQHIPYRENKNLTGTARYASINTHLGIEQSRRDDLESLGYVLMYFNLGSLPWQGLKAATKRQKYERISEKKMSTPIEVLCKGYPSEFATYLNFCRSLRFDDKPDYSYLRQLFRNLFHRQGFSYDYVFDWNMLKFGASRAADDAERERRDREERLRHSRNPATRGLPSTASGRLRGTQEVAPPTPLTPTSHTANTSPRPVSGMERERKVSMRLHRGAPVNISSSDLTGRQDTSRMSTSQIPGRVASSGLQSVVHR

For the compound `Clc1cc(NCC2CC2)c2ncc(-c3ccc4[nH]ncc4c3)n2n1` [compound 2, 6-Chloro-N-(cyclopropylmethyl)-3-(1H-indazol-5-yl)imidazo[1,2-b]pyridazin-8-amine], the remaining binding at 1 µM on EPHA1 turned out to be 80%; on CTK, 91%; at CSNK1D, 64%; at MARK4, 92%; on BRSK2, 100%.

`O=C(CN1CCOCC1)N[C@H]1CC[C@H](Nc2cc(Cl)nn3c(-c4ccc5[nH]ncc5c4)cnc23)CC1` [compound 26]: the remaining binding at 1 µM came to 84% on EPHA1; 95% at CTK; 61% at CSNK1D; 95% at MARK4; 98% at BRSK2.

As to `CN1CCC(CNc2cc(Cl)nn3c(-c4cc5nc(Nc6ccccc6)[nH]c5cc4F)cnc23)CC1` [compound 31, 6-Chloro-3-(6-fluoro-2-(phenylamino)-1H-benzo[d]imidazol-5-yl)-N-((1-methylpiperidin-4-yl)methyl)imidazo[1,2-b]pyridazin-8-amine], the remaining binding at 1 µM at EPHA1 came out at 99%; on CTK, 69%; on CSNK1D it was 100%; at MARK4, 93%; at BRSK2, 84%.
